Assay results from patent US7223783B2, “Indolinone derivatives” (Theravance, Inc., priority 2001, dated 2007).
pEC50, pIC50: −log10 of the molar value. Where two headings read alike, the source gives them in different places.

Assays:
VEGFR = biological target: T1, VEGFR (Homo sapiens, UniProt P35968); experiment: Ca2+ release assay (FLIPR) in HUVECs; format: cell-based; settings: VEGF 40 ng/mL, highest concentration tested 1 μm
T1 construct: against the VEGFR in the FLIPR assay, HUVECs (Walkersville, Md.) were used; endogenous in cells; host or cells: HUVEC
T1 sequence (P35968 20-1356): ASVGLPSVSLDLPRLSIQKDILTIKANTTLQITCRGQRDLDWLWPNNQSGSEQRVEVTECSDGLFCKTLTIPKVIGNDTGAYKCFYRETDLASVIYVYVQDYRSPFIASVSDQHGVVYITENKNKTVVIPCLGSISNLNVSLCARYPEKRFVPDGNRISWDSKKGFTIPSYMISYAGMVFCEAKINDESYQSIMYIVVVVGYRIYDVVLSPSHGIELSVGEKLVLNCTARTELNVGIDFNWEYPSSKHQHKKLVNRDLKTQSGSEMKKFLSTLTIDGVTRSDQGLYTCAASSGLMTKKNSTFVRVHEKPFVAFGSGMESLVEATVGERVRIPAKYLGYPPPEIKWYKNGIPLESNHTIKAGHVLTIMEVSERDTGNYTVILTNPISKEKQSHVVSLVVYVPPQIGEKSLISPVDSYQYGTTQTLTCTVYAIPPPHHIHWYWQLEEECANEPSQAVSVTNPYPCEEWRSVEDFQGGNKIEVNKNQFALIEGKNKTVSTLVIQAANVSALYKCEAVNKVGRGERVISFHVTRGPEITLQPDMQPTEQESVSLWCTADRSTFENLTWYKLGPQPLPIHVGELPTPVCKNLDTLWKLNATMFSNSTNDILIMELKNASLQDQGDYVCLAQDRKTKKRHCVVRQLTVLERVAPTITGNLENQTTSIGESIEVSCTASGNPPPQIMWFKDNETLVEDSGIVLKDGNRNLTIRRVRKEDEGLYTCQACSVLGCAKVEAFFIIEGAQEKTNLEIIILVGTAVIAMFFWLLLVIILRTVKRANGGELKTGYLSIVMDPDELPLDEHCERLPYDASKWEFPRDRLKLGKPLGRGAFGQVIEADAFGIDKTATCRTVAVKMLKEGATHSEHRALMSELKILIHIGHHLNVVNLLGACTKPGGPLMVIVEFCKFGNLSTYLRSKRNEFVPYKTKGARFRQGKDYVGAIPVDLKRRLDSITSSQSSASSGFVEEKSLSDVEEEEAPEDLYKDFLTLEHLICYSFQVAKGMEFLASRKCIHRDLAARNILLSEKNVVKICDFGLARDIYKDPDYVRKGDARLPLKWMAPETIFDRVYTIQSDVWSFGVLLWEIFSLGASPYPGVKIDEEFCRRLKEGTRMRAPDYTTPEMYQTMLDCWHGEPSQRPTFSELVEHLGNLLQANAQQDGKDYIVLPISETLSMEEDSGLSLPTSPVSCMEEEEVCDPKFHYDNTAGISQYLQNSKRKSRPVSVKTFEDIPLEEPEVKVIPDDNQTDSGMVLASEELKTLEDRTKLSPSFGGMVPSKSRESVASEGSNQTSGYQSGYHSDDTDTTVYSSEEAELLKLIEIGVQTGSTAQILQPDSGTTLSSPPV

PDGFR [1] = biological target: T2, PDGFR (Homo sapiens, UniProt P09619); experiment: Ca2+ release assay (FLIPR) in HEK cell line expressing human PDGFR; format: cell-based; design: expressed in transfected cells; host or cells: HEK; settings: HEK cells expressing human PDGFR, PDGF 40 ng/mL
T2 sequence (P09619 33-1106): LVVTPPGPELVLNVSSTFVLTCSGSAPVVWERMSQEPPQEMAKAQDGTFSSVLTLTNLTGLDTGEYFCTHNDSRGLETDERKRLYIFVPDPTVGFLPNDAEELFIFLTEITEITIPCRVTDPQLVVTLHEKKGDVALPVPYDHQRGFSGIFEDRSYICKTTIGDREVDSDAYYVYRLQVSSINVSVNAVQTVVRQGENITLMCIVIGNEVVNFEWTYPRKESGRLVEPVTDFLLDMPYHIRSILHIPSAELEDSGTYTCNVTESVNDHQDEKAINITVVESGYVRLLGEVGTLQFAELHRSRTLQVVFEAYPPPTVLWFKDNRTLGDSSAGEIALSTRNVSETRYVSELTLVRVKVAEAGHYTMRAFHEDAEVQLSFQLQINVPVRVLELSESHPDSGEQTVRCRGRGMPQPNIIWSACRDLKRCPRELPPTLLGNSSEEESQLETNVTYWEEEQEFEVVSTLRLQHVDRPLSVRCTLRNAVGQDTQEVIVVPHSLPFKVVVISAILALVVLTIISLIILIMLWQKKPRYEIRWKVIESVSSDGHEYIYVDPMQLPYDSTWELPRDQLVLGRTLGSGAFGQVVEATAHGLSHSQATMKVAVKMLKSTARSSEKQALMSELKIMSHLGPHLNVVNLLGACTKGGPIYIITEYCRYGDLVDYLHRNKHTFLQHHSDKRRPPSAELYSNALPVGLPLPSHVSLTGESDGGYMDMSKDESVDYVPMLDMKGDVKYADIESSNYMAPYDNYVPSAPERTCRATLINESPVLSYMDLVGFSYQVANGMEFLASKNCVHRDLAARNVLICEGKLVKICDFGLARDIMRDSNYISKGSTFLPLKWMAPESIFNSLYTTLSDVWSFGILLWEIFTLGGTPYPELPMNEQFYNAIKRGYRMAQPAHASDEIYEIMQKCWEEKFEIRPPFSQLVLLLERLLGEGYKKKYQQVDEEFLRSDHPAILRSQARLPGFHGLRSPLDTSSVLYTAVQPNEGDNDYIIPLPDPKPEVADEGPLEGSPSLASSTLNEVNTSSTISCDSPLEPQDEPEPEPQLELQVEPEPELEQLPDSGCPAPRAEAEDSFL

Flt-3 ITD = biological target: T3, Flt-3 ITD (Homo sapiens, UniProt P36888, INS600HVDFREYEYD); experiment: Proliferation and viability assay (MTT), cytotoxicity assay; format: cell-based; settings: MV4-11 AML cells expressing Flt-3 ITD, 48 hours, highest concentration tested 10 μm
T3 construct: MV4-11 cells express Flt-3 ITD; endogenous in cells; host or cells: MV4-11
T3 sequence (P36888 with tags, fused parts or gaps INS600HVDFREYEYD): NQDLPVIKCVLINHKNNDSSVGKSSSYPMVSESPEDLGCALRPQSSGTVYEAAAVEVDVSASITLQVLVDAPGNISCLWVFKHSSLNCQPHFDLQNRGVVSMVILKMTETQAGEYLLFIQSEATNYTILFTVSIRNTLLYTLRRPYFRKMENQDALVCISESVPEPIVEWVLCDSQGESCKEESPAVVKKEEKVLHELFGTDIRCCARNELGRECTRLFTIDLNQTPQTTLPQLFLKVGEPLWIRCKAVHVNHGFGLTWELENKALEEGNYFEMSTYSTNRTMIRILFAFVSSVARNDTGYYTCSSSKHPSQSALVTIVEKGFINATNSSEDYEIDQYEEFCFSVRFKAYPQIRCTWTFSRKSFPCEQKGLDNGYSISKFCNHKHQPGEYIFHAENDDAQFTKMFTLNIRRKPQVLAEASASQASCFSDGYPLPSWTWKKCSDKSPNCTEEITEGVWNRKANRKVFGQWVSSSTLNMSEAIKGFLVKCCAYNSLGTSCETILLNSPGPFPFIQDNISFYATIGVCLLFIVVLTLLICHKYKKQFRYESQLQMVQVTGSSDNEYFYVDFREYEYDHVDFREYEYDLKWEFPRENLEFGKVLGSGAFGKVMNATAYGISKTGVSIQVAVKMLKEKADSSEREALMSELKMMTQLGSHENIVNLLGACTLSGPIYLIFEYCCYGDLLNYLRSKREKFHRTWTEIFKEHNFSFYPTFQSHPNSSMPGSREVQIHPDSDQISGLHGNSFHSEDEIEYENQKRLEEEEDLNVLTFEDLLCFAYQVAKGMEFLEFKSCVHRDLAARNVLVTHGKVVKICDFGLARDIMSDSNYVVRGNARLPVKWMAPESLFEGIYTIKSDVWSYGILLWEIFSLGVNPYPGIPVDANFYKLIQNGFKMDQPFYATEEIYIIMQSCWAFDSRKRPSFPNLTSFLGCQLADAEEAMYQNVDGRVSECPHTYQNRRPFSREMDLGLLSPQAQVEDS

[2] = prior art statement; cited from earlier work
[3] = upon oral and intravenous administration; cited from earlier work
Solubility in water = format: physicochemical
PDGFR [4] = biological target: T2, PDGFR; experiment: Immunoprecipitation/Western (IP/Western) receptor autophosphorylation; format: cell-based; design: expressed in transfected cells; host or cells: HEK PDGFR cell line; settings: Immunoprecipitation/Western (IP) assay, HEK PDGFR cell line; highest concentration tested 1 μm
Protocol: Immunoprecipitation/Western (IP/Western)
The binding of growth factors to receptor tyrosine kinases like Flt-3 or PDGFR leads to the autophosphorylation of the receptors. The inhibition of autophosphorylation is the objective pursued with kinase inhibitors. By performing an IP/Western experiment the level of receptor autophosphorylation can be assessed directly.
5×10^6 cells (HEK PDGFR cell line for PDGFR, HEK c-Kit for c-Kit, and THP-1, HL-60 or MV4-11 for Flt-3) were incubated for 30 minutes in 2.5 mL of culture media with a defined concentration of test compound. In order to stimulate receptor autophosphorylation, growth factor (PDGF, SCF, or Flt-3 ligand respectively, 50 ng/mL, Biosource International, Camarillo, Calif.) was added for 5 minutes. The cells were then centrifuged and lysed in 500 μL lysis buffer (50 mM Tris pH 7.4, 1% NP-40, 150 mM NaCl, 1 mM EDTA, 1 mM Na3V04). The lysate is centrifuged and 10 μL of antibody against the respective receptor was added to the supernatant (anti-PDGFR (P20), anti-c-Kit (C-19), and anti-Flt-3 (S18), Santa Cruz Biotechnology, Inc.). The immunocomplexes were isolated with Protein G beads (Sigma, St. Louis, Mo.) and PAGE was performed. A Western Blot was done using an antibody against phospho-tyrosine residues (4G10, Upstate Biotechnology, Lake Placid, N.Y.). The intensity of the phospho-tyrosine signal corresponding to various drug concentrations provides a way to determine the IC50 of the test compound for the inhibition of autophosphorylation.

[5] = Pharmacokinetics in male Sprague Dawley rats; format: in vivo, rat
Protocol: To evaluate pharmacokinetics, male Sprague Dawley rats (CD strain, Charles River Laboratories, Wilmington, Mass.) were dosed with test compounds via intravenous (IV) administration, at 1 mg/kg concentration, and oral (PO) administration, at 10 mg/kg concentration. Blood samples were collected from animals pre-dose, and at 2, 5, 15, and 30 minutes, and at 1, 2, 4, 6, 8, and 24 hours post-dose. Plasma concentrations were determined by liquid chromatography-mass spectrometry (LC-MS) (MDS SCIEX API 4000, Applied Biosystems, Foster City, Calif.). Standard pharmacokinetic parameters were assessed by non-compartmental methods using the WinNonlin Version 3.2 software package (Pharsight, Mountain View, Calif.). Oral bioavailability was determined as the ratio of the area under the curve (AUC) in the graph of plasma concentration versus time for PO administration to the corresponding quantity for IV administration.

[6] = tested on: receptor tyrosine kinases PDGFR, c-Kit, VEGFR and Flt-3; experiment: One or more of the FLIPR, MTT and IP/Western whole cell assays; format: cell-based
Protocol: In order to determine the IC50 of test compounds against the VEGFR in the FLIPR assay, HUVECs (Walkersville, Md.) were used. For the determination of IC50s against the PDGFR, a HEK cell line were used that expresses the human PDGFR. 40–50000 cells per well were plated in a 96 well plate. The cells were incubated for 3–4 hours to adhere to the plate. Subsequently, the cells were washed twice in FLIPR buffer (1×HBS, 2 mM CaCl, 10 mM HEPES, pH7.4, 2.5 mM Probenecid, 0.1% BSA). After the second wash 50 μL of the Ca^2+ sensitive dye FLUO-3 (FLUO-3 (AM) TEF Labs, 50 μg in 10 mL FLIPR buffer) was added to the remaining 50 μL buffer in each well. After loading the cells for one hour, the cells were washed twice and the test compounds were added in 50 μL as a 2× solution to the 50 μL of buffer in each well. The cells were incubated with the compounds for 30 minutes and then VEGF (40 ng/mL, BioSource International) for the VEGFR or PDGF (40 ng/mL, BioSource International) for the PDGFR was added. The change in fluorescence intensity was measured in a Fluorometric Image Plate Reader (FLIPR) (Molecular Devices).
The inhibition of mutant Flt-3 ITD is expected to affect the proliferation and viability of AML cells with this mutation. […] The plate was incubated at 37 degrees Celsius for 24 hours and, then, the optical density of the wells was determined spectrophotometrically at 550 nm. […]

Flt-3 = biological target: T4, Flt-3 (Homo sapiens, UniProt P36888); settings: Abstract 497, O'Farrell et al., ASH 2001; cited from earlier work
T4 sequence (P36888 27-993): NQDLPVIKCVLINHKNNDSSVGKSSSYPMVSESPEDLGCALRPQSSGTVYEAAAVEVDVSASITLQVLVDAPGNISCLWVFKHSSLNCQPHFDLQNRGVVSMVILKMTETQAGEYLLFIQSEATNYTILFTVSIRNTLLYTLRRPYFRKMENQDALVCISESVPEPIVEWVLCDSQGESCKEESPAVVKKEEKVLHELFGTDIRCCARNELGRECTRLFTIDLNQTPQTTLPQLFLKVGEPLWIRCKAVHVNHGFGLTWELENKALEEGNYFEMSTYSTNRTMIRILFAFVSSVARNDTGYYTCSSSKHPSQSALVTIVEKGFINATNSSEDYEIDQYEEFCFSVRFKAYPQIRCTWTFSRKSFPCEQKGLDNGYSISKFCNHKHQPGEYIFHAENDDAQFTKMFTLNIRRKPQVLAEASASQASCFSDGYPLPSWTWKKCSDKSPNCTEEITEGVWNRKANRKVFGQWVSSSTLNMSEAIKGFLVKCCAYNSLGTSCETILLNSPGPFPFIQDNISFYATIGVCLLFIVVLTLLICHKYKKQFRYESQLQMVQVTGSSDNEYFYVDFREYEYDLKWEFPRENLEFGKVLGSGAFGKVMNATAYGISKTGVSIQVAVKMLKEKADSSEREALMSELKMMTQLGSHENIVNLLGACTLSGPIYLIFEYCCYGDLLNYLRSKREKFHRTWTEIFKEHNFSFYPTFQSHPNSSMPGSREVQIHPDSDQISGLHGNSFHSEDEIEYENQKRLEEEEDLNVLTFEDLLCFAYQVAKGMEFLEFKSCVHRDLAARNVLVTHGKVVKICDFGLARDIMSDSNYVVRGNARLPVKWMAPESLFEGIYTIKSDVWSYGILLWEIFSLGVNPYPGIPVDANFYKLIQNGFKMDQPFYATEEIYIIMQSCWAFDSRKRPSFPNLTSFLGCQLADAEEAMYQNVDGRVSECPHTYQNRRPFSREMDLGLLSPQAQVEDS

pIC50 (VEGFR) | VEGFR IC50 (VEGFR) | pIC50 (PDGFR [1]) | PDGFR IC50 (PDGFR [1]) | Solubility in water (Solubility in water) | pIC50 (PDGFR [4]) | PDGFR IC50 (PDGFR [4]) | bioavailability ([5]; male, Sprague-Dawley, rat, plasma, oral, 10 mg/kg) [%] | Absorption on oral administration ([5]; oral administration) | Compound | pEC50 (Flt-3 ITD) | Flt-3 EC50 (Flt-3 ITD) | Solubility in water [2] | bioavailability [3] | Inhibition of one or more of PDGFR, c-Kit, VEGFR and Flt-3 [6] | Ability to inhibit the receptor tyrosine kinase Flt-3 (Flt-3)
7.52 | sub-micromolar activity | 7.05 | sub-micromolar activity |  |  |  |  |  | CCN1CCN(C(=O)CCc2c(C)[nH]c(C=C3C(=O)Nc4ccccc43)c2C)CC1.O=C(O)C(F)(F)F [Example 22, 3-[3,5-dimethyl-4-[3-oxo-3-(4-ethyl)piperazin-1-ylpropyl]-1H-pyrrol-2-ylmethylene]-1,3-dihydroindol-2-one, trifluoroacetate] | 6.66 | sub-micromolar activity |  |  |  | 
 |  |  |  |  |  |  |  |  | Cc1cc(C)c(/C=C2\C(=O)Nc3ccccc32)[nH]1 [SU5416] |  |  | poor solubility in water | low bioavailability |  | 
7.70 | sub-micromolar activity |  |  | high solubility in water | 7.52 | sub-micromolar activity | 50.6 | excellent absorption | Cc1[nH]c(C=C2C(=O)Nc3ccccc32)c(C)c1CCC(=O)N1CCNCC1.O=C(O)C(F)(F)F [Example 1, 3-[3,5-dimethyl-4-(3-oxo-3-piperazin-1-yl-propyl)-1H-pyrrol-2-ylmethylene]-1,3-dihydroindol-2-one, trifluoroacetate] | 6.62 | sub-micromolar activity |  |  | highly potent and selective inhibitor | 
 | No activity** |  |  |  |  | No activity**^# |  |  | Cc1[nH]c(C=C2C(=O)Nc3ccccc32)c(C)c1CCC(=O)O [SU6668, 3-[2,4-dimethyl-5-(2-oxo-1,2-dihydroindol-3-ylidenemethyl)-1H-pyrrol-3-yl]propionic acid, reference compound] |  | No activity* |  |  |  | lack the ability
